Reference: publication PMC2807730 (Bioorganic & medicinal chemistry letters, 2009)

Assays:
Clk4 [1] = biological target: T1, Clk4 (Homo sapiens, UniProt Q9HAZ1); details: cited from earlier work
Clk1 = Clk1 (Homo sapiens, UniProt P49759); details: cited from earlier work
Dyrk1A = Dyrk1A (Homo sapiens, UniProt Q13627); experiment: Dyrk1A inhibition; type: biochemical; details: data not shown
Clk4 [2] = biological target: T1, Clk4; experiment: bioluminescent, luciferase-based Clk4 assay

T1 sequence (Q9HAZ1 whole entry): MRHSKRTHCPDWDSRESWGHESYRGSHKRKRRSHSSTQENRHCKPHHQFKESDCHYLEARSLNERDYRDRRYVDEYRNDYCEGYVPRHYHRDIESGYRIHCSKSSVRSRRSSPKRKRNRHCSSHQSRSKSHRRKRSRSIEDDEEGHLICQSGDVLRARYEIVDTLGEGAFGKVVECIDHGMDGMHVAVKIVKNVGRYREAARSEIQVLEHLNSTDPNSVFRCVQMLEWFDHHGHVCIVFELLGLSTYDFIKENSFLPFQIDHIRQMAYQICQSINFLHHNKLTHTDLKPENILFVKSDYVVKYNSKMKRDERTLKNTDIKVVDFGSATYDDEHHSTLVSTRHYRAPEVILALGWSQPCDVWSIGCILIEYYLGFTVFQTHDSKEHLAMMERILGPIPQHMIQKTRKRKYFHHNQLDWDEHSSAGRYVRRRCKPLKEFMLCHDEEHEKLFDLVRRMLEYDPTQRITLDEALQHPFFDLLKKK
Sequence of Clk1 (P49759 whole entry): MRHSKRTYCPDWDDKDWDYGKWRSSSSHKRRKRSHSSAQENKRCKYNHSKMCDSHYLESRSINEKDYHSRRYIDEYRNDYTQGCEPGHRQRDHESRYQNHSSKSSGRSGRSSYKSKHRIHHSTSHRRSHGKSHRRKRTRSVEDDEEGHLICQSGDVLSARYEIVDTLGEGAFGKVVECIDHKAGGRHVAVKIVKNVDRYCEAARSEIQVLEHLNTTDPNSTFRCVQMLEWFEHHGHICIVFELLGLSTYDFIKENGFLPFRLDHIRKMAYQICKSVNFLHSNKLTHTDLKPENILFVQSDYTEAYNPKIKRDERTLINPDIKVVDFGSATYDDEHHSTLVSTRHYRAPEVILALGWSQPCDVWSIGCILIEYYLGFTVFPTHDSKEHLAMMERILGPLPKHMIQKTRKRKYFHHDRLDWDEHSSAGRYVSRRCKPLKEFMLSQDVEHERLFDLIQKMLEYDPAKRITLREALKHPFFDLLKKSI

SMILES | IC50 values versus Clk4 (Clk4 [1]) | IC50 values versus Clk1 (Clk1) | inhibition of Dyrk1A (Dyrk1A) | enzyme inhibition in ATP dose response (Clk4 [2]; compound constant at 70 nM, high ATP concentrations (>200 μM), data not shown) | potency in peptide dose response (Clk4 [2]; compound constant at 70 nM, increasing dose of peptide, data not shown) | change of potency with ATP concentration (Clk4 [2]; dose response at 1, 50, 100 μM ATP (Figure 4A)) | change of potency with peptide substrate concentration (Clk4 [2]; dose response at 50, 100, 200 μM peptide (Figure 4B)) | activity versus numerous EGFR mutants (EGFR mutants)
CCN1/C(=C/C(C)=O)Sc2ccc(OC)cc21 [compound 1] | low-nanomolar | low-nanomolar |  |  |  |  |  | 
c1csc(CNc2ncnc3ccc(-c4ccc5c(c4)OCO5)cc23)c1 [compound 4] |  |  | potent inhibitors | sharp decline in enzyme inhibition | did not effect the potency | loss in potency when ATP levels rise | no affect on the compound potency | > 250 nM
